Experimental data as given in patent publication US4038287A, “Compounds of allantoin with basic amino acids” (Kawaken Fine Chemicals Co., Ltd., priority 1975, dated 1977).
Converted amounts (≈) assume the structure as drawn.

Assays:
Assay type in all cases: physicochemical
[1] = Solubility (wt.% at 20° C.) in water and alcohol-water solutions; conditions: for solubility: water
From the text: (§1) The solubility of pure allantoin at room temperature is 0.6 wt. % in water, 1.0 wt. % in glycerol and 0.3 wt. % in 50 vol. % aqueous solution of ethyl alcohol. In contrast, the solubilities of the compounds of the present invention in the aforementioned solvents are shown in Table I. It will be understood from Table I that all compounds of the present invention can be dissolved to make present in the solution much more allantoin than can be obtained by dissolving allantoin, per se.
Solubility (wt.% at 20° C.)

[2] = pH of a saturated solution in water
From the text: Referring to the pH of a saturated solution obtained by dissolving the compounds of the present invention, respectively, in water, the solution pH of allantoin/arginine molecular compound was 8.5, that of allantoin/ornithine molecular compound was 9.0 and that of allantoin/lysine compound was 8.9. When the pH of the respective saturated solutions of compounds according to the invention was adjusted, with HCl solution, to the pH value of a saturated solution of pure allantoin in water, namely 5 to 6, and even though the saturated solutions of the compounds according to the invention contain a higher concentration of allantoin than that of a saturated solution of pure allantoin, no crystals of allantoin precipitated from the respective solutions of compounds according to the invention.

[3] = Dissolved amount of allantoin component of the compounds; conditions: 20° C.
From the text: as §1
Also, comparing the dissolved amount of the allantoin component of the compounds according to the present invention and that allantoin, per se, the former is about fifteen times greater than that of allantoin, per se, and the effects of allantoin are thereby improved.

physchem = assay: physchem
From the text: as §1

Compound	Solubility in 50% ethyl alcohol-water solution [1] [wt.%]	Solubility in 50% isopropyl alcohol-water solution [1] [wt.%]	Solubility in 50% methyl alcohol-water solution [1] [wt.%]	solubility [1] [mg/mL]	pH of a saturated solution in water [2]	Dissolved amount of allantoin component, 50% ethyl alcohol-water solution [3] [wt.%]	Dissolved amount of allantoin component, 50% isopropyl alcohol-water solution [3] [wt.%]	Dissolved amount of allantoin component, 50% methyl alcohol-water solution [3] [wt.%]	Dissolved amount of allantoin component, water [3] [wt.%]	Solubility of pure allantoin in 50 vol. % aqueous solution of ethyl alcohol (physchem) [wt. %]	Solubility of pure allantoin in glycerol (physchem) [wt. %]	solubility (physchem; water) [µg/mL]
NC(=O)NC1NC(O)(NCCCCC(N)C(=O)O)NC1=O (stereo not shown) [Allantoin/lysine compound (C)]	9.6	4.8	21.7	300 (≈ 986 mM)	8.9	5.0	2.5	11.3	15.6	–	–	–
NC(=O)NC1NC(=O)NC1=O (stereo not shown) [Allantoin, allantoin]	0.3	0.1	0.5	6 (≈ 37.9 mM)	–	–	–	–	–	0.3	1.0	6000 (≈ 37.9 mM)
NC(=O)NC1NC(O)(NCCCC(N)C(=O)O)NC1=O (stereo not shown) [Allantoin/ornithine compound (B)]	12.3	6.6	26.2	405 (≈ 1400 mM)	9.0	6.7	3.6	14.3	22.1	–	–	–
N=C(NCCCC(N)C(=O)O)NC1(O)NC(=O)C(NC(N)=O)N1 (stereo not shown) [Allatoin/arginine (1:1) compound (A)]	19.8	9.9	43.3	603 (≈ 1810 mM)	8.5	9.4	4.6	20.2	28.2	–	–	–
